The numbers were not newly measured in EP2266541A1, “Solid pharmaceutical composition comprising rivaroxaban” (Krka Tovarna Zdravil, D.D., Novo Mesto, priority 2009, dated 2010), which cites them from elsewhere.

Each structure is given as a SMILES string.

The conditions of this data set: stated in the background section, no method given.

As for `O=C(NC[C@H]1CN(c2ccc(N3CCOCC3=O)cc2)C(=O)O1)c1ccc(Cl)s1` [Rivaroxaban, 5-chloro-N-{[(5S)-2-oxo-3-[4-(3-oxomorpholin-4-yl)phenyl]oxazolidin-5-yl]methyl}thiophene-2-carboxamide], the solubility in water result is reported as “about 7 mg/L”.
